A short description of series [1]: Particle size determination (SEM image analysis / Nano Particle Analyzer). The series is classed as physicochemical. As for the experimental part: The particle size of the NP and inclusion complexes was determined by imaging using scanning electron microscopy (Leitz AMR 1600 T [Amray, Bedford, MA, USA]), with an acceleration potential of 20 kV. Samples were sputter-coated with a gold layer to make them conductive. Then, to determine the particle size, scanning electron microscopy images were analyzed using the ImageJ 1x software, a Java-based graphic design program dedicated to image analysis, to estimate size. The particle size of nano-formulations was determined by using a Nano Particle Analyzer Horiba SZ-100 (Kyoto, Japan). Samples were diluted (1:30) in filtered distilled water before measuring.

For series [2] the following is noted: background statement, no reference given; cited from earlier work.
For series [3], the system named is Trichinella spiralis encysted muscle larvae. The series is described as follows: In vivo therapeutic efficacy in the parenteral stage of T. spiralis infection. Also noted: species or system CBi/L and CBi+ mice. The note with it: for Dead larvae percentage: 15 mg MBZ/kg/day oral days 27, 28, 29 p-i, methylene blue, median (range). As for the experimental part:
Since CBi/L and CBi+ mice show significant body weight differences, as already stated, adult animals of both sexes were infected orally with an equivalent dose of 2 T. spiralis L1 larvae per g of the host’s body weight. Each animal was weighed before infection, 24–48 h before treatment, and before sacrifice. During the infection course, the general health of each mouse (overall physical condition and behavior) was monitored three times a week.
Six mice per line and sex were randomly assigned to the non-treated control (C) or treated groups (MBZ, NP, or Comp). Seven days after the last dose, mice were sacrificed to quantify encysted muscle larvae in the tongue. The tongue was excised, weighed, and digested overnight at 37 °C in a pepsin–HCl solution. Digestion was interrupted by adding saline, and the larvae were rinsed several times with saline to remove debris. After low-speed centrifugation (250–300 g, 5 min), the supernatant was carefully removed, and the pellet containing larvae was resuspended in 2 mL of saline. Larvae were counted under an optical microscope at 40× magnification using an acrylic plate. Each formulation’s anthelmintic efficacy was assessed by its effect on the larval muscle load (relative larval load: rLL, number of L1 larvae per g fresh tissue). Also, the effect of the formulations on the encysted L1 larvae viability (dead larvae percentage: proportion of dead muscle larvae/total muscle larvae recovered from each animal) was analyzed using the methylene blue supravital staining technique, as already described.

The test system of another series is T. spiralis female worms. Briefly: In vitro parasitic assay on T. spiralis female worms. Also noted: species or system Trichinella spiralis. As for the experimental part:
CBi mice were orally infected with 10 L1 T. spiralis larvae per gram of body weight and sacrificed on day 6 post-infection (intestinal phase) as described previously. After euthanasia, the small intestine was excised, segmented into equal lengths, and placed in Petri dishes containing 8–12 mL of incubation medium (0.85% NaCl with 250 μg/mL gentamicin). Each segment was opened longitudinally, gently agitated in the medium, and incubated for 4 h at 37 °C in 5% CO2. Following incubation, intestinal pieces were rinsed with medium and discarded. The medium containing released parasites was collected, centrifuged at a low speed, and the pellet was resuspended in 2–3 mL of RPMI 1640 supplemented with 250 μg/mL of gentamicin and 10% fetal bovine serum. Female worms were then isolated under sterile conditions for further assays.
They were stirred at room temperature for 24 h and then filtered through sterile ethyl cellulose 0.2 μm pore filters (Minisart®, Sartorius Stedim Biotech, Göttingen, Germany).
The entire procedure was conducted under sterile conditions as described by Priotti et al.. Female T. spiralis worms obtained as above were incubated overnight in RPMI 1640 supplemented with 250 μg/mL of gentamicin and 10% fetal bovine serum at 37 °C in 5% CO2. […] The MBZ solution served as the positive control, and the culture medium with the solvent served as the negative control. Worms were incubated at 37 °C in a humidified 5% CO2 atmosphere for 30 h and observed under an inverted microscope at 2, 4, 7, 24, and 30 h. Viability was assessed at each time point by motility and morphology to classify worms as live or dead. The number and motility of newborn larvae were also recorded. Median worm survival was analyzed using survival curves. Experiments were performed in duplicate, with data corrected against the negative control.
Survival curves were calculated using Kaplan and Meier’s product limit method (GraphPad Prism® 9.5; GraphPad Software, Inc., San Diego, CA, USA). The significance of the difference among survival curves was determined with the log-rank test.

The test system of series [4] is Trichinella spiralis encysted muscle larvae. The series is described as follows: Increasing doses of pure MBZ, therapeutic efficacy in T. spiralis-infected CBi+ mice. The note with it: CBi+ males and females, 30 or 45 mg of MBZ/kg, vs control mice or 15 mg of MBZ/kg. The series is classed as in vivo. As for the experimental part: As in the experiments described in Section 2.10.2, the pure drug was administered in the parenteral stage of infection on days 27, 28, and 29 p-i. Seven days after the last dose, mice were sacrificed, and the number and viability of the tongue’s encysted muscle larvae were determined to evaluate anthelmintic efficacy.

The next series can be described thus: in vivo. Also noted: species or system CBi/L and CBi+ mice. The following applies: mouse, po, 15 mg/kg. The protocol: Separately, 2.6 g of gelatin powder was dissolved in 10 mL of hot water (60 °C), and 100 μL of this solution was added to each tube before solidification. The mixture was then sonicated in a 60 °C water bath, and 40 mg of powdered commercial chow was added to enhance palatability and ensure complete ingestion. This procedure was developed in our lab and was published in Codina et al..
Following the procedures described by Codina et al., three to four animals per formulation were anesthetized after the drug administration with an intraperitoneal injection of ketamine/xylazine 10:1, 5 min before blood collection. Whole blood (approximately 1.5 mL) samples were taken by cardiac puncture at 0.3, 0.6, 1, 1.2, 2, 2.5, 3, 4, 5, 7, and 24 h post-treatment. Blood was collected into heparinized vials and centrifuged at 9000 rpm for 15 min to obtain plasma, which was transferred to a plastic tube and stored at −20 °C until HPLC analysis.
Briefly, each plasma sample (200 μL) was deproteinized by adding methanol (1 mL), frozen for 30 min at −20 °C, and centrifuged at 15,000 rpm at 4 °C for 12 min. Then, the supernatant was evaporated under vacuum, and the dried samples were stored frozen until analyzed. Samples were reconstituted in 100 μL of the mobile phase and filtered through 0.2 μm polyvinylidene fluoride (PVDF) syringe filters (Agilent, Santa Clara, CA, USA). The mobile phase consisted of 0.05 M of monobasic potassium phosphate buffer and methanol (40:60, v/v). […] Briefly, each plasma sample (200 μL) was treated to eliminate proteins by adding methanol (1 mL), frozen for 30 min at −20 °C, and centrifuged at 15,000 rpm at 4 °C for 12 min. Then, the supernatant was evaporated under a vacuum, and the dried samples were frozen until analyzed. Samples of 25 μL were injected, and the analytes were eluted (flow 1.2 mL/min) from a column Zorbax Eclipse C-18 (150 × 4.6 mm; 5 μm). The absorbance was measured at a wavelength of 247 nm. The analyte retention time was 3.8 ± 0.2 min.
According to regulatory guidelines, the Lower Limit of Quantification (LLOQ) is defined as the lowest concentration of an analyte in a biological matrix that can be quantitatively determined with acceptable precision and accuracy. […] The LLOQ was determined based on the standard deviation of the response at the lowest concentration point, measured in triplicate, and was evaluated for both precision (% CV) and accuracy criteria. […] Consequently, only data up to 7 h were considered for pharmacokinetic analysis.
AUCs were calculated using the trapezoidal rule. Pharmacokinetic parameters were expressed as mean ± SEM. In this section, we report data as mean ± SEM to provide a measure of the central tendency along with the precision of the estimated mean. The standard error of the mean (SEM) is particularly useful for highlighting the reliability of the sample mean as an estimate of the true population mean, which is relevant when evaluating pharmacokinetic (PK) parameters under controlled conditions.

Usually AUC(0-t) stands for exposure summed from dosing to a finite time, without extrapolation to infinity. Low readings indicate low exposure, high ones high exposure. As usually defined, the Cmax is the maximum level reached in the sampled fluid or tissue. The Tmax is the time from dosing to the highest level.

Marks after values point to notes of the source that are not given here.

Consider `COC(=O)Nc1nc2ccc(C(=O)c3ccccc3)cc2[nH]1` [MBZ, Mebendazole], for which the “Particle Size (mean diameter)” value in series [1] was 10.4 ± 6.9 µm. For the same compound, the Oral bioavailability result in series [2] is reported as “approximately 20%”. The Dead larvae percentage is given as 5 (5–11) ^a % in series [3] (CBi+ female), 11 (7–75) ^a % in series [3] (CBi+ male), 15 (6–25) ^b % in series [3] (CBi/L female) and 27 (7–75) ^b % in series [3] (CBi/L male). Also, in series [3] (pure MBZ 15 mg/kg on days 27, 28, and 29 p-i), the “Number of muscle larvae recovered compared to control animals” value is “did not reduce the number of muscle larvae recovered”. In addition, the “Survival Proportion After 30 h” value in the series with T. spiralis female worms (T. spiralis females, 30 h incubation in RPMI 1640) was found to be 79.3%. Further, the “Median Survival” value with T. spiralis female worms (T. spiralis females, 30 h incubation in RPMI 1640, Kaplan–Meier) is “Undefined”. The “Effect on mobility of T. spiralis newborn larvae” value in the series with T. spiralis female worms (larvae released by females exposed to the antiparasitic solutions, 30 h) is given as “Neither MBZ nor the formulations affected the mobility”. In addition, the “Decrease in muscle rLL” value in series [4] was found to be 40%. Further, the AUC(0-t) is 600 ± 80 ng·h/mL in the series “in vivo” (female, CBi+); 3900 ± 630 ng·h/mL in the series “in vivo” (female, CBi/L); 400 ± 200 ng·h/mL in “in vivo” (male, CBi+); 2700 ± 820 ng·h/mL in “in vivo” (male, CBi/L). In addition, the maximum concentration (Cmax) in the series “in vivo” (female, CBi+) worked out at 200 ± 20 ng/mL; in the series “in vivo” (female, CBi/L), 1300 ± 260 ng/mL; in the series “in vivo” (male, CBi+) it was 300 ± 110 ng/mL; in the series “in vivo” (male, CBi/L), 1300 ± 310 ng/mL. Besides, the Tmax was found to be 39.6 min in the series “in vivo” (female, CBi+); 39.6 min in the series “in vivo” (female, CBi/L); 39.6 min in “in vivo” (male, CBi+); 39.6 min in “in vivo” (male, CBi/L).

The values above are taken from publication PMC12389038 (Pharmaceutics, 2025).
